Test results from patent publication US8513228B2, “Crystalline form of antiprogestin CDB-4124” (Richter Gedeon Nyrt., priority 2009, dated 2013).

Assays:
[1] = Water adsorption properties by dynamic vapour sorption (DVS); format: physicochemical
Experimental: From the examination of water adsorption properties important conclusions can be made about the physical and chemical stability of a compound. Amorphous compounds can adsorb more water from the air. This property is deliberately disadvantageous during the preparation process of a pharmaceutical composition, since the real amount of the active ingredient can't be measured because of the adsorbed water.
Water adsorption properties of the compounds were measured by dynamic vapour sorption technique (DVS). […]

[2] = Fast Stability Test (solid stored on a plate at 40° C. in air, impurity by HPLC); format: physicochemical; settings: for N-demethyl-derivative of CDB-4124: largest degradation product; for N-demethyl-derivative of CDB-4124 / Impurity: HPLC; for Impurity: stored on a plate at 40° C. in the presence of air
Experimental: Amorphous and crystalline forms were stored on a plate at 40° C. in the presence of air for 10 days. Impurity was measured at different times using HPLC equipment. […]

Compound	water adsorbed (max.) ([1]; DVS, 25° C., 0%-90% relative humidity, as humidity was increased) [m/m %]	stability (purity examination) ([2]; 40° C., air, 10 days, compared with amorphous form)	N-demethyl-derivative of CDB-4124 ([2]; Day 0, 40° C., air) [%]	Impurity ([2]; Day 0) [%]	N-demethyl-derivative of CDB-4124 ([2]; Day 1, 40° C., air) [%]	Impurity ([2]; Day 1) [%]	N-demethyl-derivative of CDB-4124 ([2]; Day 2, 40° C., air) [%]	Impurity ([2]; Day 2) [%]	Impurity ([2]; Day 6) [%]	N-demethyl-derivative of CDB-4124 ([2]; Day 10, 40° C., air) [%]	Impurity ([2]; Day 10) [%]	mass change as the degree of humidity was increased ([1]; DVS, 25° C., 0%-90% relative humidity)	physical stability on change in relative humidity ([1]; room-temperature, independently of a change in relative humidity)
COCC(=O)[C@@]1(OC(C)=O)CC[C@H]2[C@@H]3CCC4=CC(=O)CCC4=C3[C@@H](c3ccc(N(C)C)cc3)C[C@@]21C [Amorphous form, 17α-acetoxy-21-methoxy-11β-[4-N,N-dimethylaminophenyl]-19-norpregna-4,9-diene-3,20-dione, reference compound]	2	–	–	–	–	–	–	–	–	–	–	–	–
COCC(=O)[C@@]1(OC(C)=O)CC[C@H]2[C@@H]3CCC4=CC(=O)CCC4=C3[C@@H](c3ccc(N(C)C)cc3)C[C@@]21C [Form A, 17α-acetoxy-21-methoxy-11β-[4-N,N-dimethylaminophenyl]-19-norpregna-4,9-diene-3,20-dione]	–	much better than that of the amorphous form	0.18	0.33	0.18	0.33	0.18	0.35	0.43	0.23	0.48	barely changed	stable anhydrate
